Here are results for 1 molecule from US11440870B2, “Cannabidiolic acid esters compositions and uses thereof” (Yissum Research Development Company of the Hebrew …, priority 2017, dated 2022).

This assay deals with anxiety-like responding in rats. Nature of the assay: Light-dark box emergence test after foot shock stress (anxiety-like responding). It is filed as in vivo, male Sprague-Dawley rats. Conditions: WAY100635 i.p. 15 min before VEH; P<0.05. An excerpt: Animal procedures complied with the Canadian Council on Animal Care, and the protocols were approved by the Institutional Animal Care Committee at University of Guelph. Animal studies are reported in compliance with the ARRIVE guidelines (Kilkenny et al., 2010; McGrath and Lilley, 2015). A total of 200 näive male Sprague-Dawley rats, obtained from Charles River Laboratories (St Constant, Quebec), were used for all in vivo studies. Rats were individually housed (for acute nausea studies) or pair-housed [for anticipatory nausea and light-dark emergence studies] in home cages made of opaque white plastic (48×26×20 cm), containing bed-o-cob bedding from Harlan Laboratories, Inc. (Mississauga, Ontario), a brown paper towel, and Crinkl'Nest™ from The Andersons, Inc. (Maumee, Ohio). Additionally, in the home cage, rats were provided with a soft white paper container that was 14 cm long and 12 cm in diameter. All rats were subjected to an ambient temperature of 21° C. and a 12/12 h light-dark schedule (lights off at 07:00 h) and maintained on food (Highland Rat Chow [8640]) and water ad libitum. For the acute and anticipatory nausea studies, their body weights ranged from 263 to 329 g on the day of conditioning. For the light-dark emergence studies, their body weights ranged from 320 to 387 g on the day of test.
For the in vivo experiment 3, anxiolytic-like responding was evaluated using the light-dark emergence apparatus, which consisted of an opaque white plastic rectangular box that was divided into two compartments: a small (25 cm wide×20.5 cm long×20.5 cm high) enclosed dark box built of opaque black plastic with a door (8 cm wide×10 cm high) leading to a larger (39.5 cm long×25 cm wide) open lit box. The open lit box was illuminated by one lamp (with a 60 W bulb, 180 lux in the light chamber) positioned 115 cm above the center of the lit box. A video camera was mounted over the top of the light-dark box, and the video tapes were analyzed by the Ethovision software (Noldus Information Technology, Leesburg, Va., USA) for the duration of time spent in the light box for the 5 min test. For the foot shock (FS) session, the rats were placed in sound attenuating MED Associates fear conditioning chambers (St. Albans, Vt., USA). The 6 min FS session consisted of six 0.8 mA foot shocks delivered 1 min apart. Each 0.5 s shock was preceded by a 30 s auditory tone (90 Db, 5000 Hz) as described by Bluett et al. (2014).
The effect of CBDA and HU-580 on anxiety-like responding was evaluated using the light-dark box emergence test following either foot shock stress or no foot shock (No FS) stress. […]

Regarding `COc1ccccc1N1CCN(CCN(C(=O)C2CCCCC2)c2ccccn2)CC1` [WAY100635, reference compound], the “Time spent in the light box after foot shock (FS) stress vs No FS” value is listed as “spent less time in the light box following FS stress than following No FS stress”.
